According to ChEMBL document CHEMBL3351382, “New thiophene-1,2,4-triazole-5(3)-ones: highly bioactive thiosemicarbazides, structures of Schiff bases and triazole-thiols” (Eur J Med Chem, 2014):
Converted amounts (≈) assume the structure as drawn. The source made the active and inactive calls. The calls are words filed in the database; no cut-off is given here.

Assays:
Staphylococcus aureus = test: Antimicrobial activity against Staphylococcus aureus ATCC 25923 after 24 hrs by agar dilution method; type: functional
Enterococcus faecalis = test: Antimicrobial activity against Enterococcus faecalis ATCC 29212 after 24 hrs by agar dilution method; type: functional, organism-based
Listeria monocytogenes = test: Antimicrobial activity against Listeria monocytogenes ATCC 43251 after 24 hrs by agar dilution method; type: functional, organism-based
Bacillus cereus = test: Antimicrobial activity against Bacillus cereus 709 Roma after 24 hrs by agar dilution method; type: functional
[1] = system: Mycolicibacterium smegmatis; test: Antimicrobial activity against Mycobacterium smegmatis ATCC 607 after 24 hrs by agar dilution method; type: functional
Candida albicans = test: Antimicrobial activity against Candida albicans ATCC 60193 after 24 hrs by agar dilution method; type: functional, organism-based
Saccharomyces cerevisiae = test: Antimicrobial activity against Saccharomyces cerevisiae RSKK 251 after 24 hrs by agar dilution method; type: functional, organism-based
[2] = Antioxidant activity assessed as trolox equivalent of ferric ion reducing activity using fe3+-TPTZ at 200 ug/ml by FRAP assay; type: physicochemical
Escherichia coli = test: Antimicrobial activity against Escherichia coli ATCC 25922 after 24 hrs by agar dilution method; type: functional, organism-based
Pseudomonas aeruginosa = test: Antimicrobial activity against Pseudomonas aeruginosa ATCC 10145 after 24 hrs by agar dilution method; type: functional, organism-based
[3] = system: Yersinia pseudotuberculosis; settings: ATCC 911
[4] = Antioxidant activity assessed as DPPH scavenging activity at 10 ug/ml after 60 mins by spectrophotometry; type: physicochemical; settings: 1 h
[5] = Antioxidant activity assessed as DPPH scavenging activity at 200 ug/ml after 60 mins by spectrophotometry; type: physicochemical; settings: 1 h

SMILES	MIC (Staphylococcus aureus)	MIC (Enterococcus faecalis)	MIC (Listeria monocytogenes)	MIC (Bacillus cereus)	MIC [1]	MIC (Candida albicans)	MIC (Saccharomyces cerevisiae)	Activity [2] [µM]	MIC (Escherichia coli)	MIC (Pseudomonas aeruginosa)	MIC [3]	MIC (Staphylococcus aureus; ATCC 25923, 24 h) [µg/mL]	MIC ([1]; ATCC 607, 24 h) [µg/mL]	Activity [4] [%]	Activity [5] [%]
O=C(Cn1nc(Cc2cccs2)n(/N=C/c2ccccc2)c1=O)N/N=C/c1ccccc1	inactive	inactive	inactive	inactive	inactive	inactive	inactive	35	inactive	inactive	inactive				
COc1ccc(/C=N/NC(=O)Cn2nc(Cc3cccs3)n(/N=C/c3ccc(OC)cc3)c2=O)cc1	inactive	inactive	inactive	inactive	inactive	inactive	inactive	54	inactive	inactive	inactive				
COc1ccc(/C=N/NC(=O)Cn2nc(Cc3cccs3)n(N)c2=O)cc1	inactive	inactive	inactive	inactive	inactive	inactive	inactive	87	inactive	inactive	inactive				
O=C(Cn1nc(Cc2cccs2)n(/N=C/c2cccnc2)c1=O)N/N=C/c1cccnc1	inactive	inactive	inactive	inactive	inactive	inactive	inactive	16	inactive	inactive	inactive				
Cc1ccc(NC(=S)NNC(=O)Cn2nc(Cc3cccs3)n(N)c2=O)cc1		inactive	inactive	inactive		inactive	inactive	1257	inactive	inactive	inactive	3220 (≈ 7.72 mM)	1610 (≈ 3.86 mM)	88.2	
Nn1c(Cc2cccs2)nn(Cc2nnc(S)n2-c2ccc(Br)cc2)c1=O		inactive	inactive	1750 µg/mL (≈ 3.77 mM)		inactive	inactive	70	inactive	inactive	inactive	1750 (≈ 3.77 mM)	1750 (≈ 3.77 mM)		22.1
NNC(=O)Cn1nc(Cc2cccs2)n(N)c1=O	inactive	inactive	inactive	inactive		inactive	inactive	1368	inactive	inactive	inactive		994 (≈ 3.7 mM)		1.9
Nn1c(Cc2cccs2)nn(CC(=O)NNC(=S)Nc2ccc(Br)cc2)c1=O		inactive	inactive	950 µg/mL (≈ 1.97 mM)		inactive	inactive	635	inactive	inactive	inactive	950 (≈ 1.97 mM)	950 (≈ 1.97 mM)	84.4	
CCOC(=O)Cn1nc(Cc2cccs2)n(N)c1=O	inactive	inactive	inactive	inactive		inactive	inactive	14	inactive	inactive	inactive		994 (≈ 3.52 mM)		10
Nn1c(Cc2cccs2)nn(CC(=O)NNC(=S)Nc2ccc(F)cc2)c1=O		inactive	inactive	inactive	inactive	inactive	inactive	503	inactive	inactive	inactive	2410 (≈ 5.72 mM)		69	
O=C(Cn1nc(Cc2cccs2)n(/N=C/c2cccs2)c1=O)N/N=C/c1cccs1	inactive	inactive	inactive	inactive	inactive	inactive	inactive	27	inactive	inactive	inactive				
Nn1c(Cc2cccs2)nn(CC(=O)N/N=C/c2ccccc2)c1=O	inactive	inactive	inactive	inactive	inactive	inactive	inactive	40	inactive	inactive	inactive				
OC(Cn1cncn1)(Cn1cncn1)c1ccc(F)cc1F						Active	Active								
Nn1c(Cc2cccs2)nn(CC(=O)NNC(=S)Nc2ccccc2)c1=O		inactive	inactive	5050 µg/mL (≈ 12.5 mM)		inactive	inactive	584	inactive	inactive	inactive	2520 (≈ 6.26 mM)	1260 (≈ 3.13 mM)	83.4	
Nn1c(Cc2cccs2)nn(CC(=O)N/N=C/c2cccs2)c1=O	inactive	inactive	inactive	inactive	inactive	inactive	inactive	36	inactive	inactive	inactive				
Cc1ccc(-n2c(S)nnc2Cn2nc(Cc3cccs3)n(N)c2=O)cc1	inactive	inactive	inactive	inactive	inactive	inactive	inactive	54	inactive	inactive	inactive				23.9
Nn1c(Cc2cccs2)nn(Cc2nnc(S)n2-c2ccccc2)c1=O	inactive	inactive	inactive	inactive	inactive	inactive	inactive	11	inactive	inactive	inactive				62.7
Nn1c(Cc2cccs2)nn(Cc2nnc(S)n2-c2ccc(F)cc2)c1=O	inactive	inactive	inactive	inactive	inactive	inactive	inactive	39	inactive	inactive	inactive				31.7
O=C(Cn1nc(Cc2cccs2)n(/N=C/c2ccco2)c1=O)N/N=C/c1ccco1	inactive	inactive	inactive	inactive	inactive	inactive	inactive	79	inactive	inactive	inactive				30.9
Nn1c(Cc2cccs2)nn(CC(=O)N/N=C/c2ccco2)c1=O	inactive	inactive	inactive	inactive	inactive	inactive	inactive	10	inactive	inactive	inactive				9.7
Nn1c(Cc2cccs2)nn(CC(=O)N/N=C/c2cccnc2)c1=O	inactive	inactive	inactive	inactive	inactive	inactive	inactive	26	inactive	inactive	inactive				
CC1(C)S[C@@H]2[C@H](NC(=O)[C@H](N)c3ccccc3)C(=O)N2[C@H]1C(=O)O	Active	Active	Active	Active	Active				Active	Active	Active				
